According to patent publication US20230322815A1, “NOVEL COMPOUNDS AND THERAPEUTIC USES THEREOF” (University of Huddersfield, priority 2020, published 2023):

How the values were obtained:
[1] = target: recombinant Src (p-Y527, p-Y416) (Homo sapiens, UniProt P12931); test: Western blot of purified recombinant kinase after exposure to complex; type: biochemical; conditions: 50 μM complex, 4 hours, in the presence of ATP
Experimental: FIG. 10. Western blot analysis of purified recombinant Src and AMPK following exposure to [L2Zn3]^6+ and [L2Cu3]^6+. Purified enzymes were incubated with complexes (50 μM) for 4 hours in the presence of ATP prior to analysis.
Protein lysates and recombinant proteins were resolved on 15% SDS polyacrylamide gels. Proteins were electroblotted onto nitrocellulose membrane by wet transfer in 1×Tris Glycine buffer (Biorad) at 35 mA overnight at room temperature (Allison et al., 2014). After blocking of membranes, these were incubated with primary antibody overnight at 4° C. before addition of rabbit or mouse secondary antibody (HRP-conjugated) for 1 h at room temperature and development of blots by enhanced chemiluminescence. Primary antibodies were: anti-Src (total) (Cell Signalling Technology #2123 1:1000), anti-phosphorylated Src (Y527) (Cell Signalling Technology #21055 1:1000), anti-phosphorylated Src (Y416) (Cell Signalling Technology #69435 1:1000), anti-AMPKα (total) (Cell Signalling Technology #2532 1:1000), anti-phosphorylated AMPKα (T172) (Cell Signalling Technology […] 1:1000), anti-phospho-Tyr (pan) (Cell Signalling Technology #8954 1:2000), anti-p53 (Santa Cruz, DO-1 clone, 1:1000), anti-β-actin (Merck MAB1501, 1:40,000). Quantification of signals was performed by densitometry using Image J software.
For Src, effects of the complexes on two key regulatory phospho-amino acids were examined, Y527 and Y416 (FIG. 10). […] The decrease in p-Y527 is consistent with the selective phosphatase activity of [L2Zn3]^6+.

[2] = test system: H460 tumors; test: Chick embryo chorioallantoic membrane (CAM) assay, in ovo efficacy; type: in vivo, human tumor cells on chick embryo CAM; conditions: for doses giving statistically significant regression of tumor growth (mean tumor weight at E18) / doses giving reduction of tumor growth comparable to SoC: L2Zn3 54, 108, 216 μM, L2Cu3 42, 84, 168 μM; for doses giving statistically significant regression of tumor growth (mean tumor weight at E18): 100 μl on tumor graft at E11, E13, E15, E17; for doses giving reduction of tumor growth comparable to SoC: SoC paclitaxel; for H460 metastatic load in the lower CAM (qPCR for Alu sequences): all three tested doses
Experimental: FIG. 21. Activity of [L2Cu3]^6+ and [L2Zn3]^6+ against primary H460 tumors. The results presented represent the mean tumour weight±SEM following treatment at 3 different doses of [L2Cu3]^6+ and [L2Zn3]^6+: L2Zn3 [1]=54 μM, L2Zn3 [2]=108 μM, L2Zn3 [3]=216 μM; L2Cu3 [1]=42 μM, L2Cu3[2]=84 μM, L2Cu3[3]=168 μM. SoC paclitaxel. Statistical analysis by one way ANOVA (*): 0.05≥p value >0.01; (**): 0.01≥p value >0.001; (***): 0.001≥p value; (****): 0.0001≥p value. Number per experimental group n=10-13.
FIG. 22. Evaluation of the effects of [L2Cu3]^6+ and [L2Zn3]^6+ on primary H460 metastasis to the lower CAM. Relative ALU expression (relative to chicken GAPDH) as a quantitive marker of metastasis of human cells to the lower CAM. L2Zn3 [1]=54 μM, L2Zn3 [2]=108 μM, L2Zn3 [3]=216 μM; L2Cu3 [1]=42 μM, L2Cu3[2]=84 μM, L2Cu3[3]=168 μM. SoC paclitaxel. Relative expression ±SEM. Statistical analysis by one way ANOVA (*): 0.05≥p value >0.01; (**): 0.01≥p value >0.001; (***): 0.001≥p value; (****): 0.0001≥p value. Number per experimental group n=7-8.
[L2Cu3]^6+ and [L2Zn3]^6+ were evaluated at three different doses for in ovo anti-cancer activity, toxicity and anti-metastatic activity against tumors initiated from three different human cancer cell line models (H460, HT29, HCT116), in the chick embryo chorioallantoic membrane (CAM) assay.
Each compound was provided to the contract research organisation (CRO) Inovotion (La Tronche, France) conducting the in ovo study, as a powder pre-weighed in single vials (2 equivalents of ligand, 3 equivalents of metal; and stored at room temperature). Before use, this was then dissolved in DMSO to 50 mM to generate a stock solution and further freshly diluted in RPM11640 or McCoys aqueous cell culture media for administration.
A standard of care (SoC) drug for the particular tumour type was tested concurrently as a comparative control for in vivo efficacy and toxicity evaluation. A solvent control served as a negative control for both SoC and experimental compounds.
(§1) 10^6 tumor cells (H460, HT29 or HCT116) were grafted onto the upper chorioallantoic membrane (CAM) of the developing chick embryo on embryonic day 9 (E9). Access to the upper CAM was through a small hole drilled through the eggshell of fertilized White Leghorn eggs (into the air sac) on E9 (15 eggs per experimental group).
(§2) 100 μl of freshly prepared experimental compound, vehicle control or standard-of-care (SoC) drug at their working concentrations were pipetted onto the tumor graft at E11, E13, E15 and E17. On day E18, the upper CAM (with tumor) was removed, washed by PBS buffer and then directly transferred in PFA (fixation for 48 hrs). After that, tumors were carefully cut away from normal CAM tissue and weighed.
On day E18, a 1 cm^2 portion of the lower CAM was collected (n=8 per group), stored at −20° C. and later processed to extract DNA. Samples were analysed for human genomic DNA (qPCR for Alu sequences) as a quantitative marker of tumor metastasis to the lower CAM.

[3] = test system: chick embryo; test: Embryonic toxicity, HCT116 in ovo study; type: in vivo, chick (White Leghorn); conditions: for embryo tolerability: all doses tested, no statistically significant difference to solvent control; for % Alive / % Dead / Alive (embryos at E18) / Dead (embryos at E18): HCT116 study
Experimental: as §1, §2
Embryonic viability was checked daily. The number of dead embryos was also counted on E18, to evaluate treatment-induced embryo toxicity.

[4] = Direct ATP hydrolysis by the complex (mass spectroscopy); conditions: ATP incubated with complex alone
From the text: There are several potential mechanisms which could lead the observed kinase inhibition ‘readout’ of this screen including, i) direct ATP hydrolysis by the complex(es) and differing Km of the kinases for ATP, and, ii) dephosphorylation of the peptide substrate by the phosphatase activity of the Zn^2+ complex resulting in cycles of peptide phosphorylation by active recombinant enzyme and dephosphorylation by the complex.

[5] = dose [1]: L2Zn3 70.5 μM, L2Cu3 75 μM
[6] = dose [2]: L2Zn3 141 μM, L2Cu3 150 μM
[7] = dose [3]: L2Zn3 282 μM, L2Cu3 300 μM

Sequence of recombinant Src (p-Y527, p-Y416) (P12931 whole entry): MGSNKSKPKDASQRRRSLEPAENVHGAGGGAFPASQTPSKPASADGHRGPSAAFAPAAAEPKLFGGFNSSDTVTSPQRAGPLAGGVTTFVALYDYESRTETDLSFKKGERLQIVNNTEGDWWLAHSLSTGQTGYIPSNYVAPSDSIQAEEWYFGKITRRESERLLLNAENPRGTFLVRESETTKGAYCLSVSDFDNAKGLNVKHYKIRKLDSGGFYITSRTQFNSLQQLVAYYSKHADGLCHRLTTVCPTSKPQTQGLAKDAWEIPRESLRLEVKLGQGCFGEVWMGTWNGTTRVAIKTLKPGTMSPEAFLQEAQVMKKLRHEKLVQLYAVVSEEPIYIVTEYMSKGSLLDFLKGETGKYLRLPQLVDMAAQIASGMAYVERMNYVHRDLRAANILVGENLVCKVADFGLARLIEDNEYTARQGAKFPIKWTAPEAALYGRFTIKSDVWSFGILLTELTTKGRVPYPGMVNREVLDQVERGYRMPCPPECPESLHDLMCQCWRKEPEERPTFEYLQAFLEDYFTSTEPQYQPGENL

| Compound | detection of p-Y416 [1] | doses giving statistically significant regression of tumor growth (mean tumor weight at E18) [2] | doses giving reduction of tumor growth comparable to SoC [2] | H460 metastatic load in the lower CAM (qPCR for Alu sequences) [2] | embryo tolerability [3] | % Alive [3, 5] [%] | % Dead [3, 5] [%] | Alive (embryos at E18) [3, 5] | Dead (embryos at E18) [3, 5] | % Alive [3, 6] [%] | % Dead [3, 6] [%] | Alive (embryos at E18) [3, 6] | Dead (embryos at E18) [3, 6] | % Alive [3, 7] [%] | % Dead [3, 7] [%] | Alive (embryos at E18) [3, 7] | Dead (embryos at E18) [3, 7] | hydrolysis of ATP [4] | decrease in p-Y527 relative to total Src levels [1] [%] | increase in p-Y416 levels [1] [fold] |
| --- | --- | --- | --- | --- | --- | --- | --- | --- | --- | --- | --- | --- | --- | --- | --- | --- | --- | --- | --- | --- |
| [Cu+2].[Cu+2].[Cu+2].c1ccc(-c2csc(NCCN(CCNc3nc(-c4ccccn4)cs3)CCNc3nc(-c4ccccn4)cs3)n2)nc1.c1ccc(-c2csc(NCCN(CCNc3nc(-c4ccccn4)cs3)CCNc3nc(-c4ccccn4)cs3)n2)nc1 [[L2Cu3]^6+] | could not be detected | the two highest tested doses | the highest dose | no statistically significant metastatic regression | well tolerated | 100 | 0 | 14 | 0 | 86.67 | 13.33 | 13 | 2 | 86.67 | 13.33 | 13 | 2 | little or no hydrolysis of ATP |  |  |
| [Zn+2].[Zn+2].[Zn+2].c1ccc(-c2csc(NCCN(CCNc3nc(-c4ccccn4)cs3)CCNc3nc(-c4ccccn4)cs3)n2)nc1.c1ccc(-c2csc(NCCN(CCNc3nc(-c4ccccn4)cs3)CCNc3nc(-c4ccccn4)cs3)n2)nc1 [[L2Zn3]^6+] |  | all three tested doses | all three tested doses | Statistically significant decreases | well tolerated | 100 | 0 | 15 | 0 | 86.67 | 13.33 | 13 | 2 | 80.00 | 20.00 | 12 | 3 | little or no hydrolysis of ATP | ~30 | ~5 |
